Experimental findings from US8008292B2, “Condensed benzamide compounds and inhibitors of vanilloid receptor subtype 1 (VR1) activity” (Japan Tobacco Inc., priority 2004, dated 2011) are described below.

In general, IC50 refers to the concentration that gives 50% inhibition. Low readings indicate inhibition by little substance, high ones a need for much substance.

Structures can show the parent of a compound that is named as a salt.

In the assay the target is T1, human VR1 (Homo sapiens, UniProt Q8NER1).
T1 construct: expressed in transfected cells
The assay can be described thus: Inhibition of Ca2+ entry in cells caused by proton, in rat glioma (C6BU1) cells stably expressing human VR1 (Fura 2 fluorescence). The class given is cell-based. The settings on record: inhibition of proton-induced Ca2+ entry. Put shortly: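 Fura 2-loaded C6BU1 cells in 20 mM MES buffer pH 6.8 with added Ca2+ were preincubated 10 min with compound (final 1 μM to 0.1 nM, 1% DMSO). Proton stimulation brought pH to 5.5. Fluorescence rise was measured, and IC50 was derived from % inhibition versus DMSO control.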

T1 sequence (Q8NER1 whole entry): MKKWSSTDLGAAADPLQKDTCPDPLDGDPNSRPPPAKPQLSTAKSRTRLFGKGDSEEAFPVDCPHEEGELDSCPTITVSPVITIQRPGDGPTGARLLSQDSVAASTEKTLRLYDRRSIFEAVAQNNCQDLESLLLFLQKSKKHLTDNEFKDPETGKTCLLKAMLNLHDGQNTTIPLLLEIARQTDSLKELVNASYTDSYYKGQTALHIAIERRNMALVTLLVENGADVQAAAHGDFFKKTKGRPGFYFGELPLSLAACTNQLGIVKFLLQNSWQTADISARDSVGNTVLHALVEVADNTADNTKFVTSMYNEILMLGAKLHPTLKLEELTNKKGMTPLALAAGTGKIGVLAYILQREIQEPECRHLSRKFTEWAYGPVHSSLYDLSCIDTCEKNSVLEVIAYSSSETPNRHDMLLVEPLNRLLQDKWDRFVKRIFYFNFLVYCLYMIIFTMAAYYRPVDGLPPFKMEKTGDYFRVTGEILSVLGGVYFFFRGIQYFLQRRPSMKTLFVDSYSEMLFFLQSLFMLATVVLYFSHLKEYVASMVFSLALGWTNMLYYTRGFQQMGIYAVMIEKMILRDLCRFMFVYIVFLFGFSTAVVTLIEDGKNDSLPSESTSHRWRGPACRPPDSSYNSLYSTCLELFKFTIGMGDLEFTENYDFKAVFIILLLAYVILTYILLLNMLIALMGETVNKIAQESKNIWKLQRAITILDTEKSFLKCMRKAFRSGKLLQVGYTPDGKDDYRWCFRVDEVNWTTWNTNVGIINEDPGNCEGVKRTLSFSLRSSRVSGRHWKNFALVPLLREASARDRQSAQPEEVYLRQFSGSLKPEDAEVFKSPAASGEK

With `O=C(Nc1ccc(OC(F)(F)F)cc1)c1cccc2c1OC(CO)CN2c1ncccc1Cl` (centres unmarked) [Example 1-231], the IC50 lay within 100 to 1000 nM.
The value for `NC(=O)[C@H]1COc2c(C(=O)Nc3ccc(C(F)(F)F)cc3)cccc2N1c1ncccc1Cl` [Example 1-233] was less than 100 nM; that for `CNC(=O)[C@H]1COc2c(C(=O)Nc3ccc(C(F)(F)F)cc3)cccc2N1c1ncccc1Cl` [Example 1-234] was less than 100 nM.
The result for `O=C(Nc1ccc2c(c1)OCO2)c1cccc2c1OCCN2c1ncc(CO)cc1Cl` [Example 2-01, N-(benzo[1,3]dioxol-5-yl)-4-(3-chloro-5-hydroxymethylpyridin-2-yl)-3,4-dihydro-2H-benzo[1,4]oxazine-8-carboxamide] reads 100 to 1000 nM; that for `O=C(Nc1ccc(OC(F)(F)F)cc1)c1cccc2c1OCCN2c1ncc(CO)cc1Cl` [Example 2-03, N-(4-trifluoromethoxyphenyl)-4-(3-chloro-5-hydroxymethylpyridin-2-yl)-3,4-dihydro-2H-benzo[1,4]oxazine-8-carboxamide], less than 100 nM; that for `O=C(Nc1ccc(OC(F)(F)F)c(Cl)c1)c1cccc2c1OCCN2c1ncc(CO)cc1Cl` [Example 2-04, N-(3-chloro-4-trifluoromethoxypheny)-4-(3-chloro-5-hydroxymethylpyridin-2-yl)-3,4-dihydro-2H-benzo[1,4]oxazine-8-carboxamide], less than 100 nM.
The result for `O=C(Nc1ccc(C(F)(F)F)cc1)c1cccc2c1OCCN2c1ncc(CO)cc1Cl` [Example 2-05, N-(4-trifluoromethylphenyl)-4-(3-chloro-5-hydroxymethylpyridin-2-yl)-3,4-dihydro-2H-benzo[1,4]oxazine-8-carboxamide] reads less than 100 nM; that for `O=C(Nc1ccc(C(F)(F)F)c(F)c1)c1cccc2c1OCCN2c1ncc(CO)cc1Cl` [Example 2-06, N-(3-fluoro-4-trifluoromethylphenyl)-4-(3-chloro-5-hydroxymethylpyridin-2-yl)-3,4-dihydro-2H-benzo[1,4]oxazine-8-carboxamide], less than 100 nM.
Turning to `O=C(Nc1ccc(C(F)(F)F)cc1)c1cccc2c1OCCN2c1ccc(CO)cn1` [Example 2-07, N-(4-trifluoromethylphenyl)-4-(5-hydroxymethylpyridin-2-yl)-3,4-dihydro-2H-benzo[1,4]oxazine-8-carboxamide hydrochloride], the IC50 is less than 100 nM.
Regarding `CC(C)COc1ccc(NC(=O)c2cccc3c2OCCN3c2ccc(CO)cn2)cc1` [Example 2-08, 4-(5-hydroxymethylpyridin-2-yl)-N-(4-isobutyloxyphenyl)-3,4-dihydro-2H-benzo[1,4]oxazine-8-carboxamide], the 50% inhibitory concentration (IC50) was less than 100 nM.
For the molecule `COCc1cnc(N2CCOc3c(C(=O)Nc4ccc(C(F)(F)F)cc4)cccc32)c(Cl)c1` [Example 2-09, 4-(3-chloro-5-methoxymethylpyridin-2-yl)-N-(4-trifluoromethylpheny)-3,4-dihydro-2H-benzo[1,4]oxazine-8-carboxamide], the IC50 was less than 100 nM.
Turning to `O=C(Nc1ccc(OC(F)(F)F)cc1)c1cccc2c1OCCN2c1ncccc1CO` [Example 2-11, N-(4-trifluoromethoxyphenyl)-4-(3-hydroxymethylpyridin-2-yl)-3,4-dihydro-2H-benzo[1,4]oxazine-8-carboxamide], the IC50 was in the range of 100 to 1000 nM.
Molecule `O=C(Nc1ccc(C(F)(F)F)nc1)c1cccc2c1OCCN2c1ncc(CO)cc1Cl` [Example 2-16] showed a half-maximal inhibitory concentration (IC50) of less than 100 nM.
The value for `O=C(Nc1ccc(Br)c(Cl)c1)c1cccc2c1OCCN2c1ncc(CO)cc1Cl` [Example 2-17] was less than 100 nM.
The result for `CC(C)Oc1ccc(NC(=O)c2cccc3c2OCCN3c2ncc(CO)cc2Cl)cc1C(F)(F)F` [Example 2-19] reads less than 100 nM.
The molecule `O=C(Nc1cnc(Cl)c(Cl)c1)c1cccc2c1OCCN2c1ncc(CO)cc1Cl` [Example 2-20] returned an IC50 of less than 100 nM.
On to `O=C(Nc1cc(Cl)c(Cl)c(Cl)c1)c1cccc2c1OCCN2c1ncc(CO)cc1Cl` [Example 2-21], for which the 50% inhibitory concentration (IC50) was less than 100 nM.
The value for `O=C(Nc1nc2ccc(F)cc2s1)c1cccc2c1OCCN2c1ncc(CO)cc1Cl` [Example 2-22] was less than 100 nM; that for `O=C(Nc1ccc(Br)c(C(F)(F)F)c1)c1cccc2c1OCCN2c1ncc(CO)cc1Cl` [Example 2-23] was less than 100 nM; that for `O=C(Nc1cc(F)c(F)c(F)c1)c1cccc2c1OCCN2c1ncc(CO)cc1Cl` [Example 2-25] was less than 100 nM.
The result for `O=C(Nc1ccc(F)c([N+](=O)[O-])c1)c1cccc2c1OCCN2c1ncc(CO)cc1Cl` [Example 2-26] reads 100 to 1000 nM.
The result for `CC(C)(C)c1ccc(NC(=O)c2cccc3c2OCCN3c2ccc(CO)cn2)cc1` [Example 2-28] reads less than 100 nM.
Molecule `O=C(Nc1cc(C(F)(F)F)cc(C(F)(F)F)c1)c1cccc2c1OCCN2c1ncc(CO)cc1Cl` [Example 2-29] returned an IC50 of less than 100 nM.
The result for `O=C(Nc1ccc(OCC(F)(F)F)cc1)c1cccc2c1OCCN2c1ncc(CO)cc1Cl` [Example 2-30] reads less than 100 nM; that for `O=C(Nc1ccc(OCC(F)(F)F)c(Cl)c1)c1cccc2c1OCCN2c1ncc(CO)cc1Cl` [Example 2-31], less than 100 nM.
The result for `O=C(Nc1ccc(SC(F)(F)F)cc1)c1cccc2c1OCCN2c1ncc(CO)cc1Cl` [Example 2-32] reads less than 100 nM.
The value for `CC(C)(C)C1CCC(NC(=O)c2cccc3c2OCCN3c2ncc(CO)cc2Cl)CC1` (centres unmarked) [Example 2-33] was less than 100 nM.
On to `CC(C)Oc1ccc(NC(=O)c2cccc3c2OCCN3c2ncc(CO)cc2Cl)cc1F` [Example 2-34], for which the IC50 was less than 100 nM.
The value for `O=C(Nc1ccc(N2CCCCC2)c(F)c1)c1cccc2c1OCCN2c1ncc(CO)cc1Cl` [Example 2-35] was less than 100 nM.
`CC(C)(C)c1ccc(NC(=O)c2cccc3c2OCCN3c2ncc(CO)cc2Cl)cc1` [Example 2-36] returned a concentration for half-maximal inhibition (IC50) of less than 100 nM.
The result for `O=C(Nc1ccc(C(O)(C(F)(F)F)C(F)(F)F)cc1)c1cccc2c1OCCN2c1ncc(CO)cc1Cl` [Example 2-37] reads less than 100 nM; that for `O=C(Nc1ccc2c(c1)OC(F)(F)C(F)(F)O2)c1cccc2c1OCCN2c1ncc(CO)cc1Cl` [Example 2-38], less than 100 nM; that for `CC(C)COc1ccc(NC(=O)c2cccc3c2OCCN3c2ncc(CO)cc2Cl)cc1` [Example 2-39], less than 100 nM.
`O=C(Nc1ccc(Cl)c(Cl)c1)c1cccc2c1OCCN2c1ncc(CO)cc1Cl` [Example 2-40] gave an IC50 of less than 100 nM.
The result for `O=C(Nc1ccc(Br)c(F)c1)c1cccc2c1OCCN2c1ncc(CO)cc1Cl` [Example 2-41] reads less than 100 nM; that for `O=C(Nc1ccc(Br)cc1)c1cccc2c1OCCN2c1ncc(CO)cc1Cl` [Example 2-42], less than 100 nM; that for `O=C(Nc1cc(Cl)cc(Cl)c1)c1cccc2c1OCCN2c1ncc(CO)cc1Cl` [Example 2-43], less than 100 nM.
Consider `O=C(Nc1ccc(OC(F)F)cc1)c1cccc2c1OCCN2c1ncc(CO)cc1Cl` [Example 2-44], for which the IC50 is less than 100 nM.
The value for `O=C(Nc1ccc(Cl)cc1)c1cccc2c1OCCN2c1ncc(CO)cc1Cl` [Example 2-45] was less than 100 nM; that for `CC(C)c1ccc(NC(=O)c2cccc3c2OCCN3c2ncc(CO)cc2Cl)cc1` [Example 2-46] was less than 100 nM.
The value for `O=C(Nc1cccc(OC(F)(F)F)c1)c1cccc2c1OCCN2c1ncc(CO)cc1Cl` [Example 2-47] was less than 100 nM; that for `CC(O)c1cnc(N2CCOc3c(C(=O)Nc4ccc(OC(F)(F)F)cc4)cccc32)c(Cl)c1` (centres unmarked) [Example 2-48] was less than 100 nM; that for `O=C(Nc1ccc(OC(F)(F)F)cc1)c1cccc2c1OC[C@@H](CO)N2c1ncccc1Cl` [Example 4-01, (R)-4-(3-chloropyridin-2-yl)-3-hydroxylmethyl-N-(4-trifluoromethoxyphenyl)-3,4-dihydro-2H-benzo[1,4]oxazine-8-carboxamide] was 100 to 1000 nM.
The molecule `O=C(Nc1ccc(OC(F)(F)F)cc1)c1cccc2c1OC[C@H](CO)N2c1ncccc1Cl` [Example 4-03, (S)-4-(3-chloropyridin-2-yl)-3-hydroxylmethyl-N-(4-trifluoromethoxyphenyl)-3,4-dihydro-2H-benzo[1,4]oxazine-8-carboxamide] displayed a 50% inhibitory concentration (IC50) of less than 100 nM.
For `O=C(Nc1ccc(C(F)(F)F)cc1)c1cccc2c1OC[C@H](CO)N2c1ncccc1Cl` [Example 4-04, (S)-4-(3-chloropyridin-2-yl)-3-hydroxylmethyl-N-(4-trifluoromethylphenyl)-3,4-dihydro-2H-benzo[1,4]oxazine-8-carboxamide], the IC50 is less than 100 nM.
The result for `O=C(Nc1ccc(OC(F)(F)F)cc1)c1cccc2c1OC[C@H](CO)N2c1ccc(Cl)cn1` [Example 4-05, (S)-4-(5-chloropyridin-2-yl)-3-hydroxylmethyl-N-(4-trifluoromethoxyphenyl)-3,4-dihydro-2H-benzo[1,4]oxazine-8-carboxamide] reads less than 100 nM; that for `O=C(Nc1ccc(C(F)(F)F)cc1)c1cccc2c1OC[C@H](CO)N2c1ccc(Cl)cn1` [Example 4-06, (S)-4-(5-chloropyridin-2-yl)-3-hydroxylmethyl-N-(4-trifluoromethylphenyl)-3,4-dihydro-2H-benzo[1,4]oxazine-8-carboxamide], less than 100 nM.
The result for `Cc1ccc(N2c3cccc(C(=O)Nc4ccc(OC(F)(F)F)cc4)c3OC[C@@H]2CO)nc1` [Example 4-07, (S)-4-(5-picoline-2-yl)-3-hydroxylmethyl-N-(4-trifluoromethoxyphenyl)-3,4-dihydro-2H-benzo[1,4]oxazine-8-carboxamide] reads less than 100 nM; that for `Cc1ccc(N2c3cccc(C(=O)Nc4ccc(C(F)(F)F)cc4)c3OC[C@@H]2CO)nc1` [Example 4-08, (S)-4-(5-picoline-2-yl)-3-hydroxylmethyl-N-(4-trifluoromethylphenyl)-3,4-dihydro-2H-benzo[1,4]oxazine-8-carboxamide], less than 100 nM; that for `CC(C)Oc1ccc(NC(=O)c2cccc3c2OC[C@H](CO)N3c2ncccc2Cl)cc1F` [Example 4-09], less than 100 nM.
